From patent publication US20090130064A1, “DIFFERENTIATION OF STEM CELLS AND STABILIZATION OF PHENOTYPICAL PROPERTIES OF PRIMARY CELLS” (priority 2004, published 2009)

Legend:
primary rat hepatocytes [1] = test: DNA synthesis ([methyl-3H]-thymidine) in EGF-stimulated primary rat hepatocytes; assay type: cell-based
Description: (§1) Male outbred Sprague-Dawley rats (200-300 g, Iffa Credo, Brussels, Belgium) were kept under controlled environmental conditions (12-hr light-dark cycle) and fed a standard diet (Animafabo A04, water ad libitum). Hepatocytes were isolated by a two-step collagenase perfusion as described (De Smet et al. In ‘Methods in Molecular Biology, Vol. 107: Cytochrome P450 Protocols’, Philips I R and Shephard E A, eds., pp 295-301, Humana Press, Totowa, 1998). Cell liability was >90% as determined by trypan blue exclusion. Cells (0.4×10^5 cells/cm^2) were plated in MEM/M199 (3:1), containing BSA (1 mg/ml), bovine insulin (10 μg/ml), L-glutamine (2 mM), FBS (10% v/v) and antibiotics (7.3 IU/ml benzyl penicillin, 50 μg/ml streptomycin sulphate, 50 μg/ml kanamycin monosulphstep and 10 μg/ml sodium ampicillin). Four hours after plating, serum-containing medium was removed and fresh serum-free medium was added to the cultures. Culture medium was refreshed daily. EGF (50 ng/ml) was added 4 hours after plating. A 100 mM stock solution of 4-Me2N-BAVAH was prepared in ethanol.
Hepatocytes were cultured in triplicate in 35 mm tissue culture dishes (Beckton Dickinson, UK). Cells were incubated with [methyl-^3H]-thymidine (25 Ci/mmol (2 μCi/ml)) for 24 hours prior to harvesting. Its incorporation was measured by liquid scintillation counting (Wallac 1410; counting efficiency: 67.5%) after trichloroacetic acid precipitation of the DNA. Results are expressed as counts per minute (cpm) per μg of total cellular proteins. Protein concentration of the samples was determined according to the Bradford procedure (Bradford. Anal Biochem 72: 248-254, 1976), using BSA as a standard.

ribosomal S6 subunit = test: Western blotting of S6 phosphorylation in synchronized hepatocytes; assay type: cell-based, rat; settings: 50 μM
Procedure: Total cell extracts were prepared as described previously (Papeleu et al. J Hepatol 39: 374-382, 2003) and proteins (25 or 50 μg per lane) were separated electrophoretically by SDS-PAGE and electroblotted onto nitrocellulose membranes (Amersham Pharmacia Biotech, Buckinghamshire, UK). Equal sample loading was verified by immersion of the membranes in Ponceau S. Unspecific binding sites were blocked with 5% skim milk/Tris-buffered saline. Incubations with primary antibodies were performed overnight at 4° C. under gentle shaking. Proteins were detected using the ECL detection system (Amersham Pharmacia Biotech, Buckinghamshire, UK) according to the manufacturer's recommendations.
Early cell cycle events can be triggered by distinct signalling pathways, activated by EGF, namely: the MEK/ERK, the mTOR/p70S6k, and the Pak1 pathways. Eventually, they all converge on cyclin D1 and play thus an essential role in the regulation of this critical cell cycle protein. […] This was done by culturing the hepatocytes in the absence of EGF for 48 hours, consequently stimulating them with EGF and exposing them to 50 μM 4-Me2N-BAVAH for 0.5, 1 and 3 hours before harvesting. Shortly after stimulation of synchronized primary hepatocytes with EGF, a rapid and sustained phosphorylation of ERK1/2 was observed (FIG. 20A). […]

primary rat hepatocytes [2] = test: FACS analysis of cell cycle distribution of primary rat hepatocytes; assay type: cell-based; settings: 50 μM + EGF; 72 hours
Procedure: Ploidy of hepatocyte nuclei was measured by FACS analysis. After hypotonic swelling of the cells with 0.1% sodium citrate, cellular DNA was stained with propidium iodide (50 μg/ml) and analyzed on a FACStar^Plus (Beckton Dickinson Biosciences, San José, Calif., USA).

histone H4 = test: Histone H4 acetylation (in vitro HDAC inhibiting activity) in primary rat hepatocytes, Western blot; assay type: cell-based; settings: 48 hours
Description: as §1
Hepatocytes were treated for 48 hours with 4-Me2N-BAVAH (10, 25 or 50 μM) Histones were acid-extracted as described previously (Coussens et al. J Biol Chem 254:1716-1723, 1979). Extracted histones (20 μg per lane) were electrophoresed on a 15% SDS-PAGE as described (Waterborg J et al. Anal Biochem 162: 430-434, 1987) and blotted. Equal sample loading was confirmed with Ponceau S. Membranes were incubated at room temperature with primary antibody for 1 hour under gentle shaking and visualized by ECL. Band intensities were quantified by laser densitometry.

Cx26 = Cx26 expression and localization (immunoblotting, immunocytochemistry) in rat hepatocytes; assay type: cell-based; settings: 1 μM TSA
Procedure: (§2) In all conditions, the hepatocytes were cultivated as a monolayer configuration, and samples were taken at days 1, 4 and 7 (D1, D4, D7) of the cultivation time.
(§3) Proteins (25 or 50 μg) were resolved on SDS-PAGE (7.5, 10 or 12%) and blotted afterwards onto nitrocellulose membranes. After blocking with non-fatty milk, membranes were incubated with appropriate concentrations of primary and secondary antibodies (HRP labeled). Proteins were detected using the ECL detection system (Amersham Biosciences). Primary antibodies: Cx26 (Zymed, 1/250), Cx32 (Sigma, 1/500), Cx43 (Zymed, 1/100).
(§4) Hepatocytes were fixed with cold ethanol, peremeabilised with Triton X-100 (Sigma) and blocked with non-fatty milk. Following incubation with appropriate concentrations of primary and secondary antibodies (FITC or TRITC labeled), samples were mounted with DAPI-containing Vectashield (Vector Laboratories). Detection was performed by fluorescence microscopy (Leica DMR/XA).

Cx43 = Cx43 expression and localization (immunoblotting, immunocytochemistry) in rat hepatocytes; assay type: cell-based; settings: 1 μM TSA
Procedure: as §2, §3, §4

rat BMSC = test: Albumin ELISA, ALB secretion by rat BMSC-derived hepatocyte-like cells; assay type: cell-based
Procedure: Then, cells were cultivated in the presence of liver-specific (LSP) cytokines either as a cocktail [basal medium+10 ng/ml FGF-4 (fibroblast growth factor type 4), 20 ng/ml HGF (hepatic growth factor) (all from R&D), 1×ITS (insulin, transferrin, selenious acid) and 0.05 μM Dex (dexamethasone) (all from Sigma)] or separately (until day 3: basal medium+10 ng/ml FGF-4; from days 3 to 6: basal medium+20 ng/ml HGF; from day 6 on: basal medium+20 ng/ml HGF+1×ITS and 0.05 μM Dex). […] The culture media were changed every three days.
ALB concentrations secreted into the media were analysed by competitive enzyme-linked immunosorbent assay (ELISA) as described (Koebe et al. Int J Artif Organs 17: 95-106, 1994). The ALB levels were normalized with respect to the media used.

histone H4 acetylation, fold induction (histone H4; 10 μM) [fold induction] | histone H4 acetylation, fold induction (histone H4; 25 μM) [fold induction] | histone H4 hyperacetylation, fold induction (histone H4; 50 μM) [fold induction] | Structure (SMILES) | inhibitory effect on DNA replication (primary rat hepatocytes [1]; 50 μM added at 24 hours or 48 hours) | EGF-induced DNA synthesis (primary rat hepatocytes [1]; 50 μM from time of plating) | DNA synthesis (primary rat hepatocytes [1]; 50 μM maintained until 48 hours) | reduction in 3H-thymidine incorporation compared to untreated control cultures (primary rat hepatocytes [1]; 50 μM, withdrawal at 24 hours of culture, measured at 72 hours) [%] | S6 phosphorylation (ribosomal S6 subunit) | number of cells in G2/M (primary rat hepatocytes [2]) | proportion of cells in G0/G1 (primary rat hepatocytes [2]) | expression of Cx26 (Cx26) | localization of Cx26 (Cx26) | expression of Cx43 (Cx43) | localization of Cx43 (Cx43) | cell death (rat BMSC; cocktail of LSP cytokines + TSA, from day 16 on) | increase of the ALB secretion from day 15 to 17 (rat BMSC; sequential cytokines + 1 μM TSA) [fold] | ALB secretion (rat BMSC; sequential cytokines + 1 μM TSA, from day 15 on)
2.35±0.05 | 3.56±0.23 | 6.91±0.63 | CN(C)c1ccc(C(=O)NCCCCC(=O)NO)cc1 [4-Me2N-BAVAH, 5-(4-dimethylaminobenzoyl)-aminovaleric acid hydroxamide] | less or no inhibitory effect | totally suppressed | no DNA synthesis occurred | 50.9±1.6 | only a minor increase | significantly lower | significantly higher proportion |  |  |  |  |  |  | 
 |  |  | CC(C=CC(=O)NO)=CC(C)C(=O)c1ccc(N(C)C)cc1 (centres unmarked) [TSA] |  |  |  |  |  |  |  | decreases the expression | perinuclear localization | induces the expressions | cytosolic localization | cell death had occurred | 2.5 | significantly upregulated
